Experimental data published in patent US20220280462A1, “SOLID ORAL DOSAGE FORM COMPRISING NAPROXEN AND VITAMIN B1” (DSM IP ASSETS B.V., priority 2019, published 2022).
Where a name gives a salt, the structure may show the parent alone.

Assay: Bulk density, tapped density and Carr Index (flowability) of powders and granules
Assay type: physicochemical
Conditions: for Carr Index: 100×(1−BD/TD), greater than 25 indicates poor flowability
Protocol: The Carr Index is calculated by the formula 100×(1−BD/TD) and is used as an indication of the flowability.

| Description (appearance of powder) | flowability (in words, from Carr Index) | Structure (SMILES) | BD (bulk density) | TD (tapped density) | Carr Index |
| --- | --- | --- | --- | --- | --- |
| very lumpy | poor flowability | COc1ccc2cc([C@H](C)C(=O)O)ccc2c1 [Naproxen Sodium, naproxen sodium] |  |  |  |
|  |  | Cc1ncc(CO)c(CO)c1O.Cl [Pyridoxine Hydrochloride, pyridoxine hydrochloride] | 0.44 g/mL | 0.62 g/mL | 30 |
|  |  | Cc1ncc(C[n+]2csc(CCO)c2C)c(N)n1 [Thiamine hydrochloride, thiamine hydrochloride] | 0.26 g/mL | 0.46 g/mL | 44 |
